Assay results published in the kinase profiling compilation of Christmann-Franck et al. (2016).
Each block holds one molecule with its values, some of them ahead of it.

Legend:
Test in all cases: radiometric filter-binding kinase assay
IKBKB (human) = IKBKB (human) (UniProt O14920)
BTK (human) = BTK (human) (UniProt Q06187)
MAPK8 (human) = MAPK8 (human) (UniProt P45983)
FGFR1 (human) = FGFR1 (human) (UniProt P11362)
EEF2K (human) = EEF2K (human) (UniProt O00418)
[1] = tested on: PAK2 (human), Q13177 [T402E]
MAP3K1 (human) = MAP3K1 (human) (UniProt Q13233)
HIPK3 (human) = HIPK3 (human) (UniProt Q9H422)
CSNK1D (human) = CSNK1D (human) (UniProt P48730)
ERBB4 (human) = ERBB4 (human) (UniProt Q15303)
AURKA (human) = AURKA (human) (UniProt O14965)
MAP3K5 (human) = MAP3K5 (human) (UniProt Q99683)
TBK1 (human) = TBK1 (human) (UniProt Q9UHD2)
MKNK2 (human) = MKNK2 (human) (UniProt Q9HBH9)
[2] = target: STK11 CAB39 STRADA (human) (UniProt Q9Y376+Q7RTN6+Q15831)
PAK7 (human) = PAK7 (human) (UniProt Q9P286)
NEK6 (human) = NEK6 (human) (UniProt Q9HC98)
CSK (human) = CSK (human) (UniProt P41240)
HIPK1 (human) = HIPK1 (human) (UniProt Q86Z02)
MAP2K6 (human) = MAP2K6 (human) (UniProt P52564)
MAPK9 (human) = MAPK9 (human) (UniProt P45984)
MAPKAPK3 (human) = MAPKAPK3 (human) (UniProt Q16644)
MAPK3 (human) = MAPK3 (human) (UniProt P27361)
EPHA4 (human) = EPHA4 (human) (UniProt P54764)
MAP2K2 (human) = MAP2K2 (human) (UniProt P36507)
RPS6KA5 KD1 KD2 (human) = RPS6KA5 KD1 KD2 (human) (UniProt O75582)
BRSK1 (human) = BRSK1 (human) (UniProt Q8TDC3)
GSK3B (human) = GSK3B (human) (UniProt P49841)
MAPK1 (human) = MAPK1 (human) (UniProt P28482)
MAPK15 (human) = MAPK15 (human) (UniProt Q8TD08)
RPS6KA3 KD1 KD2 (human) = RPS6KA3 KD1 KD2 (human) (UniProt P51812)
PLK1 (human) = PLK1 (human) (UniProt P53350)
SRPK1 (human) = SRPK1 (human) (UniProt Q96SB4)
[3] = tested on: AKT1 (human), P31749 [S473D]
BRSK2 (human) = BRSK2 (human) (UniProt Q8IWQ3)
Sequence of BRSK2 (human) (Q8IWQ3 whole entry, looked up): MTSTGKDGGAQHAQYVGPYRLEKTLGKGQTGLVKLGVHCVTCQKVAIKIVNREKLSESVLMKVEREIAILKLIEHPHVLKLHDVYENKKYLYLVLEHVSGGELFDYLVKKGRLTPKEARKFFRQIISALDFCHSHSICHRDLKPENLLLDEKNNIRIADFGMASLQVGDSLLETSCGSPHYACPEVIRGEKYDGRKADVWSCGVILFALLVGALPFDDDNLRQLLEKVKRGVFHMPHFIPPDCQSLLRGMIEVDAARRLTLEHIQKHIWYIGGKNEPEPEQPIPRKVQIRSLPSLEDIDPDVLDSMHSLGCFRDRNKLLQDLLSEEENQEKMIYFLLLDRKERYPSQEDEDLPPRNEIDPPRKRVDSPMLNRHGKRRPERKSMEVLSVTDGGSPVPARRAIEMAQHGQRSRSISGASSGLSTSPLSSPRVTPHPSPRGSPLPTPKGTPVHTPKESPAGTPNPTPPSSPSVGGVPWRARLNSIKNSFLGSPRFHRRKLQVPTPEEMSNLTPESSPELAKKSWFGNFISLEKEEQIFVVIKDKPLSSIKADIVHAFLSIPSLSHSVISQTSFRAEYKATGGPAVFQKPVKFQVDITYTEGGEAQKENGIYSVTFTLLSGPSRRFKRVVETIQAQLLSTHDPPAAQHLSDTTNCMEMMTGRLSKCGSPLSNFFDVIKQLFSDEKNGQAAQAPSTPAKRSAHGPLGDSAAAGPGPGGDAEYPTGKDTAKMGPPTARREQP

Sequence of CSNK1D (human) (P48730 whole entry, looked up): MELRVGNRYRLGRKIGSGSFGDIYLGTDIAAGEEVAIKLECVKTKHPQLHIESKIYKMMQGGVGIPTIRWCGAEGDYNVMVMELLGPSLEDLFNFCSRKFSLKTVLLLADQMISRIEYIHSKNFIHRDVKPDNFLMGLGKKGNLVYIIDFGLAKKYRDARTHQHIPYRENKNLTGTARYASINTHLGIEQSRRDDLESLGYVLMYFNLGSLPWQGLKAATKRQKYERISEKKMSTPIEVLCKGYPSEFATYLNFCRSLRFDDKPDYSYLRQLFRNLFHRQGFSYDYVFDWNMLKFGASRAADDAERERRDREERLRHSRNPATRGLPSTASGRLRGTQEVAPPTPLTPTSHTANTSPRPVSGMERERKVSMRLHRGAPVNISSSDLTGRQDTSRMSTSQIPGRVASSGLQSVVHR
Sequence of BTK (human) (Q06187 whole entry, looked up): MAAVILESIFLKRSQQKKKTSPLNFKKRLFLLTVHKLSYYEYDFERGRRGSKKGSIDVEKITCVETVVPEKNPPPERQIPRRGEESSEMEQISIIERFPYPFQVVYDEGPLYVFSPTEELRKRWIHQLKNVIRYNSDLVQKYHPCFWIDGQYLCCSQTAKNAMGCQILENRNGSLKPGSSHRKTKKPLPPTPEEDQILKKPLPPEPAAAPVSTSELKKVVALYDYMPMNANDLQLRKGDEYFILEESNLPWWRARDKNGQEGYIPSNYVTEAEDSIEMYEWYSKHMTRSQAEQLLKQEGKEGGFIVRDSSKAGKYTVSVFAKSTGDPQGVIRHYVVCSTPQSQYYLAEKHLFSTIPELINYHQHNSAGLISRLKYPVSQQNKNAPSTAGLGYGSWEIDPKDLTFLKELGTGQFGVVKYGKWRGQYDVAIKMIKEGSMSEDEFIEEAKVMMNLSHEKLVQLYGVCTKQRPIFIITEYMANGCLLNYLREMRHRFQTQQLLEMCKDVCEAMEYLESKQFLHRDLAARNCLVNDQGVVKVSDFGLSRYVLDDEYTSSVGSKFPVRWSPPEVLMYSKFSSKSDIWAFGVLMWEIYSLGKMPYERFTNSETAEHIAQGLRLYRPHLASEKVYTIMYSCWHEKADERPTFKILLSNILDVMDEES
Sequence of MAPK3 (human) (P27361 whole entry, looked up): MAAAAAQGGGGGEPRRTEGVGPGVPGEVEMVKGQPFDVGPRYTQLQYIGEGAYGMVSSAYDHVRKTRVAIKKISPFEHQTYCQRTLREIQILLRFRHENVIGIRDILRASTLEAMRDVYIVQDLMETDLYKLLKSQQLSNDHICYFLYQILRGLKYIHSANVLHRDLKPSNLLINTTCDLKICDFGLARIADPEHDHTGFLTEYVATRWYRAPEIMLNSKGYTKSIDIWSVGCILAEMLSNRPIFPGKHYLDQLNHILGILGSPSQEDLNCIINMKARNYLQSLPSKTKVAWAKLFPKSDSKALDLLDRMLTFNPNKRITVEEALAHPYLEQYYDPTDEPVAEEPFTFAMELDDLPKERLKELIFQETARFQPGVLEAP
Sequence of GSK3B (human) (P49841 whole entry, looked up): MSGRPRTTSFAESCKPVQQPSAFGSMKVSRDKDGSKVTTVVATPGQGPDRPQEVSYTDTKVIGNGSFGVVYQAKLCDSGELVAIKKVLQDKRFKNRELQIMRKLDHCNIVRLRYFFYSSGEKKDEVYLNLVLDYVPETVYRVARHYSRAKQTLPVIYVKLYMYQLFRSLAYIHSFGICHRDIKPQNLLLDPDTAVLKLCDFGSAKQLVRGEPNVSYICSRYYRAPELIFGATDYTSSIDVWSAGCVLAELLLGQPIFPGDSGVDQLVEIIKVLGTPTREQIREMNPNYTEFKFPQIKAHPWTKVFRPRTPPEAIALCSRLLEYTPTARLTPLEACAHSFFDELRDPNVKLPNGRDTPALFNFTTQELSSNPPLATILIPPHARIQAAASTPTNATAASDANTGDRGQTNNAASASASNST
Sequence of MAP3K5 (human) (Q99683 whole entry, looked up): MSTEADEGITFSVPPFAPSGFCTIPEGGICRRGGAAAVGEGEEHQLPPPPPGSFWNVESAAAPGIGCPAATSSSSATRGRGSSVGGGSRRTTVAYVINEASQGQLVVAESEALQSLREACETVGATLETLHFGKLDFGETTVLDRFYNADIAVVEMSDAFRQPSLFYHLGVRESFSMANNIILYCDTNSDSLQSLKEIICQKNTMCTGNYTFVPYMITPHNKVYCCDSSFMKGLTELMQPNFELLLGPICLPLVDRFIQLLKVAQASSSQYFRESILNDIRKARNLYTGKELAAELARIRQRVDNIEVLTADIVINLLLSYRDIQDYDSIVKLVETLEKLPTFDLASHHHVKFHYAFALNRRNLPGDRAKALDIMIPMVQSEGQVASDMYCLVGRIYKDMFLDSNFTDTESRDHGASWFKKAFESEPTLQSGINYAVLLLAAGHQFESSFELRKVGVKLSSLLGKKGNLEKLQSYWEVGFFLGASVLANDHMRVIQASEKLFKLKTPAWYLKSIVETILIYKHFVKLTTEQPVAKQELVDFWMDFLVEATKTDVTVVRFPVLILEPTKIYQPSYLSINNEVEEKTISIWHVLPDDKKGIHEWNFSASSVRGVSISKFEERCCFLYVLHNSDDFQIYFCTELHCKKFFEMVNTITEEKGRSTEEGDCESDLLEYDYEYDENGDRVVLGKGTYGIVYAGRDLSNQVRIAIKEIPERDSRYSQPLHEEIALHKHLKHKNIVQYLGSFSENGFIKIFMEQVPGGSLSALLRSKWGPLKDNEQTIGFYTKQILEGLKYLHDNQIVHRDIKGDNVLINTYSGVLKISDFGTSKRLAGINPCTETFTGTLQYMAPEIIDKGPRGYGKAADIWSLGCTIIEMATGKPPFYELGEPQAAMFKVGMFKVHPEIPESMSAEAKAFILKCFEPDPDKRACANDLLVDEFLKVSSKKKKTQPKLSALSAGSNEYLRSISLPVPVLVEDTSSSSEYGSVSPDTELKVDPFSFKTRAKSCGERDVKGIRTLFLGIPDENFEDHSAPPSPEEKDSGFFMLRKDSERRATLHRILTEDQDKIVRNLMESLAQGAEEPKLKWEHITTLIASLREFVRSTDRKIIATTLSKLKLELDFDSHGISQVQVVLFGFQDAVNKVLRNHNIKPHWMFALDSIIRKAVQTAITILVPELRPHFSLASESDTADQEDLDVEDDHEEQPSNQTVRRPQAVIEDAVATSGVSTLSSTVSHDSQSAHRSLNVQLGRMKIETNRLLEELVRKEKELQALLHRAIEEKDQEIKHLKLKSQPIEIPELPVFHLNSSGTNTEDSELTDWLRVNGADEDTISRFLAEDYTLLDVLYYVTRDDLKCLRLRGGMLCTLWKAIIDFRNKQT
Sequence of MKNK2 (human) (Q9HBH9 whole entry, looked up): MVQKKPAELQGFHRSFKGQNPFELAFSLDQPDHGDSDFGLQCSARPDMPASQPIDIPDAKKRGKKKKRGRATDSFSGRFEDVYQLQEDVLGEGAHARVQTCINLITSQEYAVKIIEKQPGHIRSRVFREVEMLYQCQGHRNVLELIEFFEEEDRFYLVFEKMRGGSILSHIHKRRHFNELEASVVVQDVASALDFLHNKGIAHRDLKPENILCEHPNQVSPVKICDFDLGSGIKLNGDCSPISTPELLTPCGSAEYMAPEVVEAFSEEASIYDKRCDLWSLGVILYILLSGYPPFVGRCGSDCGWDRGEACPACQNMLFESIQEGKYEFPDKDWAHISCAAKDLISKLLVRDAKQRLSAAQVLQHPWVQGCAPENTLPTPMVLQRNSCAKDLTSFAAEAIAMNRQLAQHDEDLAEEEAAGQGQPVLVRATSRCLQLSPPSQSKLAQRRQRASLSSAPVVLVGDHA
Sequence of NEK6 (human) (Q9HC98 whole entry, looked up): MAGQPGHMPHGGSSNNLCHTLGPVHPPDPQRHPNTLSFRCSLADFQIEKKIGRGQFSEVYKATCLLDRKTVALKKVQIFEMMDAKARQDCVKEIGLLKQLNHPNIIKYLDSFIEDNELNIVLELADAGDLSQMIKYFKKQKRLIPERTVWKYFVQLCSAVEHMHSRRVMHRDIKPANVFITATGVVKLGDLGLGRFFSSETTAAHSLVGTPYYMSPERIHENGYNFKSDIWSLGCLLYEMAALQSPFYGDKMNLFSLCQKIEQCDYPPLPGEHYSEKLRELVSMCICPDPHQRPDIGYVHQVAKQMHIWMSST

residual activity (IKBKB (human); compound 0.1 µM): 102%
residual activity (IKBKB (human); compound 1.0 µM): 95%
residual activity (BTK (human); compound 0.1 µM): 90%
residual activity (BTK (human); compound 1.0 µM): 93%
residual activity (MAPK8 (human); compound 0.1 µM): 90%
residual activity (MAPK8 (human); compound 1.0 µM): 52%
residual activity (FGFR1 (human); compound 1.0 µM): 87%
residual activity (EEF2K (human); compound 1.0 µM): 85%
residual activity ([1]; compound 0.1 µM): 104%
residual activity ([1]; compound 1.0 µM): 110%
residual activity (MAP3K1 (human); compound 0.1 µM): 107%
residual activity (MAP3K1 (human); compound 1.0 µM): 92%
residual activity (HIPK3 (human); compound 0.1 µM): 90%
residual activity (HIPK3 (human); compound 1.0 µM): 103%
residual activity (CSNK1D (human); compound 0.1 µM): 102%
residual activity (CSNK1D (human); compound 1.0 µM): 104%
residual activity (ERBB4 (human); compound 0.1 µM): 100%
residual activity (ERBB4 (human); compound 1.0 µM): 95%
residual activity (AURKA (human); compound 1.0 µM): 105%
residual activity (MAP3K5 (human); compound 0.1 µM): 91%
residual activity (MAP3K5 (human); compound 1.0 µM): 95%
residual activity (TBK1 (human); compound 0.1 µM): 105%
residual activity (TBK1 (human); compound 1.0 µM): 102%
residual activity (MKNK2 (human); compound 0.1 µM): 41%
residual activity (MKNK2 (human); compound 1.0 µM): 26%
residual activity ([2]; compound 0.1 µM): 138%
residual activity ([2]; compound 1.0 µM): 65%
residual activity (PAK7 (human); compound 0.1 µM): 96%
residual activity (PAK7 (human); compound 1.0 µM): 103%
residual activity (NEK6 (human); compound 0.1 µM): 122%
residual activity (NEK6 (human); compound 1.0 µM): 93%
residual activity (CSK (human); compound 0.1 µM): 118%
residual activity (CSK (human); compound 1.0 µM): 56%
residual activity (HIPK1 (human); compound 0.1 µM): 102%
residual activity (HIPK1 (human); compound 1.0 µM): 98%
residual activity (MAP2K6 (human); compound 0.1 µM): 12%
residual activity (MAP2K6 (human); compound 1.0 µM): 10%
residual activity (MAPK9 (human); compound 0.1 µM): 109%
residual activity (MAPK9 (human); compound 1.0 µM): 81%
residual activity (MAPKAPK3 (human); compound 0.1 µM): 113%
residual activity (MAPKAPK3 (human); compound 1.0 µM): 94%
residual activity (MAPK3 (human); compound 0.1 µM): 106%
residual activity (MAPK3 (human); compound 1.0 µM): 64%
residual activity (EPHA4 (human); compound 0.1 µM): 91%
residual activity (EPHA4 (human); compound 1.0 µM): 46%
residual activity (MAP2K2 (human); compound 0.1 µM): 12%
residual activity (MAP2K2 (human); compound 1.0 µM): 3%
residual activity (RPS6KA5 KD1 KD2 (human); compound 1.0 µM): 100%
residual activity (BRSK1 (human); compound 0.1 µM): 113%
residual activity (BRSK1 (human); compound 1.0 µM): 90%
residual activity (GSK3B (human); compound 0.1 µM): 102%
residual activity (GSK3B (human); compound 1.0 µM): 74%
residual activity (MAPK1 (human); compound 0.1 µM): 103%
residual activity (MAPK1 (human); compound 1.0 µM): 65%
residual activity (RPS6KA3 KD1 KD2 (human); compound 0.1 µM): 106%
residual activity (RPS6KA3 KD1 KD2 (human); compound 1.0 µM): 70%
residual activity (PLK1 (human); compound 0.1 µM): 103%
residual activity (PLK1 (human); compound 1.0 µM): 100%
residual activity (SRPK1 (human); compound 0.1 µM): 104%
residual activity (SRPK1 (human); compound 1.0 µM): 88%
residual activity ([3]; compound 0.1 µM): 111%
residual activity ([3]; compound 1.0 µM): 91%
residual activity (BRSK2 (human); compound 0.1 µM): 84%
residual activity (BRSK2 (human); compound 1.0 µM): 88%
Structure (SMILES): COc1cc(O)c2c(c1)/C=C/C[C@H](O)[C@H](O)C(=O)/C=C\C[C@H](C)OC2=O
residual activity (MAPK15 (human); compound 0.1 µM): 40%
residual activity (MAPK15 (human); compound 1.0 µM): 4%

residual activity (IKBKB (human); compound 0.01 µM): 75%
residual activity (IKBKB (human); compound 0.1 µM): 24%
residual activity (IKBKB (human); compound 1.0 µM): 6%
residual activity (BTK (human); compound 0.01 µM): 49%
residual activity (BTK (human); compound 0.1 µM): 11%
residual activity (BTK (human); compound 1.0 µM): 9%
residual activity (MAPK8 (human); compound 0.01 µM): 91%
residual activity (MAPK8 (human); compound 0.1 µM): 4%
residual activity (MAPK8 (human); compound 1.0 µM): 1%
residual activity (FGFR1 (human); compound 0.01 µM): 53%
residual activity (FGFR1 (human); compound 0.1 µM): 22%
residual activity (FGFR1 (human); compound 1.0 µM): 3%
residual activity (EEF2K (human); compound 0.01 µM): 105%
residual activity (EEF2K (human); compound 0.1 µM): 97%
residual activity (EEF2K (human); compound 1.0 µM): 79%
residual activity ([1]; compound 0.01 µM): 71%
residual activity ([1]; compound 0.1 µM): 19%
residual activity ([1]; compound 1.0 µM): 4%
residual activity (MAP3K1 (human); compound 0.01 µM): 97%
residual activity (MAP3K1 (human); compound 0.1 µM): 78%
residual activity (MAP3K1 (human); compound 1.0 µM): 23%
residual activity (HIPK3 (human); compound 0.01 µM): 83%
residual activity (HIPK3 (human); compound 0.1 µM): 43%
residual activity (HIPK3 (human); compound 1.0 µM): 10%
residual activity (CSNK1D (human); compound 0.01 µM): 109%
residual activity (CSNK1D (human); compound 0.1 µM): 107%
residual activity (CSNK1D (human); compound 1.0 µM): 96%
residual activity (ERBB4 (human); compound 0.01 µM): 96%
residual activity (ERBB4 (human); compound 0.1 µM): 63%
residual activity (ERBB4 (human); compound 1.0 µM): 14%
residual activity (AURKA (human); compound 0.01 µM): 28%
residual activity (AURKA (human); compound 0.1 µM): 4%
residual activity (AURKA (human); compound 1.0 µM): 5%
residual activity (MAP3K5 (human); compound 0.01 µM): 113%
residual activity (MAP3K5 (human); compound 0.1 µM): 15%
residual activity (MAP3K5 (human); compound 1.0 µM): 2%
residual activity (TBK1 (human); compound 0.01 µM): 22%
residual activity (TBK1 (human); compound 0.1 µM): 16%
residual activity (TBK1 (human); compound 1.0 µM): 12%
residual activity (MKNK2 (human); compound 0.01 µM): 93%
residual activity (MKNK2 (human); compound 0.1 µM): 12%
residual activity (MKNK2 (human); compound 1.0 µM): 10%
residual activity ([2]; compound 0.01 µM): 103%
residual activity ([2]; compound 0.1 µM): 50%
residual activity ([2]; compound 1.0 µM): 35%
residual activity (PAK7 (human); compound 0.01 µM): 17%
residual activity (PAK7 (human); compound 0.1 µM): 4%
residual activity (PAK7 (human); compound 1.0 µM): 2%
residual activity (NEK6 (human); compound 0.01 µM): 87%
residual activity (NEK6 (human); compound 0.1 µM): 89%
residual activity (NEK6 (human); compound 1.0 µM): 72%
residual activity (CSK (human); compound 0.01 µM): 112%
residual activity (CSK (human); compound 0.1 µM): 73%
residual activity (CSK (human); compound 1.0 µM): 20%
residual activity (HIPK1 (human); compound 0.01 µM): 98%
residual activity (HIPK1 (human); compound 0.1 µM): 82%
residual activity (HIPK1 (human); compound 1.0 µM): 22%
residual activity (MAP2K6 (human); compound 0.01 µM): 10%
residual activity (MAP2K6 (human); compound 0.1 µM): 13%
residual activity (MAP2K6 (human); compound 1.0 µM): 5%
residual activity (MAPK9 (human); compound 0.01 µM): 101%
residual activity (MAPK9 (human); compound 0.1 µM): 98%
residual activity (MAPK9 (human); compound 1.0 µM): 4%
residual activity (MAPKAPK3 (human); compound 0.01 µM): 91%
residual activity (MAPKAPK3 (human); compound 0.1 µM): 74%
residual activity (MAPKAPK3 (human); compound 1.0 µM): 29%
residual activity (MAPK3 (human); compound 0.1 µM): 4%
residual activity (MAPK3 (human); compound 1.0 µM): 2%
residual activity (EPHA4 (human); compound 0.01 µM): 95%
residual activity (EPHA4 (human); compound 0.1 µM): 61%
residual activity (EPHA4 (human); compound 1.0 µM): 16%
residual activity (MAP2K2 (human); compound 0.01 µM): 32%
residual activity (MAP2K2 (human); compound 0.1 µM): 17%
residual activity (MAP2K2 (human); compound 1.0 µM): 14%
residual activity (RPS6KA5 KD1 KD2 (human); compound 0.01 µM): 41%
residual activity (RPS6KA5 KD1 KD2 (human); compound 0.1 µM): 10%
residual activity (RPS6KA5 KD1 KD2 (human); compound 1.0 µM): 2%
residual activity (BRSK1 (human); compound 0.01 µM): 61%
residual activity (BRSK1 (human); compound 0.1 µM): 3%
residual activity (BRSK1 (human); compound 1.0 µM): 1%
residual activity (GSK3B (human); compound 0.01 µM): 51%
residual activity (GSK3B (human); compound 0.1 µM): 15%
residual activity (GSK3B (human); compound 1.0 µM): 7%
residual activity (MAPK1 (human); compound 0.01 µM): 22%
residual activity (MAPK1 (human); compound 0.1 µM): 6%
residual activity (MAPK1 (human); compound 1.0 µM): 5%
residual activity (RPS6KA3 KD1 KD2 (human); compound 0.01 µM): 16%
residual activity (RPS6KA3 KD1 KD2 (human); compound 0.1 µM): 7%
residual activity (RPS6KA3 KD1 KD2 (human); compound 1.0 µM): 6%
residual activity (PLK1 (human); compound 0.01 µM): 68%
residual activity (PLK1 (human); compound 0.1 µM): 38%
residual activity (PLK1 (human); compound 1.0 µM): 22%
residual activity (SRPK1 (human); compound 0.01 µM): 89%
residual activity (SRPK1 (human); compound 0.1 µM): 53%
residual activity (SRPK1 (human); compound 1.0 µM): 11%
residual activity ([3]; compound 0.01 µM): 93%
residual activity ([3]; compound 0.1 µM): 44%
residual activity ([3]; compound 1.0 µM): 5%
residual activity (BRSK2 (human); compound 0.01 µM): 16%
residual activity (BRSK2 (human); compound 0.1 µM): 10%
residual activity (BRSK2 (human); compound 1.0 µM): 8%
Structure (SMILES): CNC(=O)C1[C@H]2O[C@@](C)([C@@H]1N)n1c3ccccc3c3c4c(c5c6ccccc6n2c5c31)C(=O)NC4 (stereo not given in full)
residual activity (MAPK15 (human); compound 0.01 µM): 48%
residual activity (MAPK15 (human); compound 0.1 µM): 8%
residual activity (MAPK15 (human); compound 1.0 µM): 11%
